Measured values published in patent US20090221522A1, “METHODS TO CORRECT GENE SET EXPRESSION PROFILES TO DRUG SENSITIVITY” (The Johns Hopkins University, priority 2008, published 2009).

Tests used:
[1] = test system: direct-patient pancreatic cancer xenografts; test: Xenograft treatment, relative tumor growth inhibition (TGI); type: in vivo, mice
Text: Four- to six-week-old female athymic (nu/nu) mice were purchased from Harlan (Harlan Laboratories, Washington, D.C.). The research protocol was approved by the Johns Hopkins University Animal Use and Care Committee and animals were maintained in accordance to guidelines of the American Association of Laboratory Animal Care. Xenografts obtained from F1 mice were excised and cut into small ˜3×3×3 mm fragments and then implanted subcutaneously in a group of five to six mice for each patient, with two small fragments in each mouse (F2) as described above for the original carcinoma. Half of the rest of the carcinoma was cryopreserved in liquid nitrogen and the other half is processed for biological studies. When the carcinoma reached a size of 1,500 mm^3, they were excised, cut into ˜3×3×3 mm fragments, and transplanted to the final cohort of mice to be treated with the drugs (F3 and successive passages). Further details of the establishment of the direct-patient pancreatic cancer xenografts are described in Rubio-Viqueira B, Jimeno A, Cusatis G, et al. An In vivo Platform for Translational Drug Development in Pancreatic Cancer. Clin Cancer Res 2006 12:4652-61.
Gemcitabine (Eli Lilly, Indianapolis, Ind.) was dissolved in saline. In some embodiments, docetaxel (Sanofi-Aventis, Bridgewater, N.J.) was dissolved in 50% ethanol and 50% DMSO. In other embodiments, docetaxel (Sanofi-Aventis, Bridgewater, N.J.) was dissolved in ethanol/polysorbate 80 as a stock solution and diluted 10-fold in 5% glucose for in vivo studies. Temsirolimus (Wyeth Research, Colleville, Pa.) was dissolved in 10% ethanol, 10% pluronic, and 80% PBS. All drugs were freshly prepared and used at an injection volume of 0.2 mL/20 g body weight. Drug doses and treatment schedules were obtained from published studies.
Xenografts from this second mouse-to-mouse passage (F3) were allowed to grow to a size of ˜200 mm^3, at which time five-to-six mice were randomly assigned to control and treatment groups. […] For docetaxel treatment group, mice were treated with 20 mg/kg once a week via intraperitoneal injection. For temsirolimus treatment group, mice were treated with 20 mg/kg/day via intraperitoneal injection. Mice were treated for 21-28 days, monitored daily for signs of toxicity, and were weighed thrice a week. Tumor size was evaluated thrice a week by caliper measurements using the following formula: tumor volume=[length×width^2]/2 as reported by van de Vijver M J, He Y D, van't Veer L J, et al. A Gene-Expression Signature as a Predictor of Survival in Breast Cancer. N Engl J Med 2002 347:1999-2009.
(§1) Relative tumor growth index (TGI) was calculated as TGI=(Ti−T0/Ci−C0) if Ti>T0 (indicates tumor growth inhibition) and TGI=(Ti−T0) if Ti≦T0 (indicates tumor regression). T and C represent tumor size in the treated and control group at the last of experiment, respectively; T0 and C0 represent tumor size in the treated and control group at the start of treatment, respectively.

pancreatic cancer = conditions: cited from earlier work
[2] = test system: patient-derived xenografts refractory to gemcitabine; test: Pre-clinical second-line study in xenografts refractory to gemcitabine (TGI); type: in vivo, mice; conditions: for TGI: treated with gemcitabine (first line)
Experimental: FIG. 11 illustrates a pre-clinical design.
FIG. 12 illustrates validation on the xenografts of FIG. 11 based on prediction according to the present invention. Four xenograft cases were used. […] A case is defined as a responder to the drug treatment if Tumor Growth Inhibition (TGI) is <20%. Negative TGI values indicate tumor regression.
as §1
Seven FDA approved anticancer agents (capecitabine, cisplatin, docetaxel, doxorubicin, etoposide, irinotecan and oxaliplatin) were used as potential second line of drugs for selection according to the present invention. The one-size-fits-all treatment was erlotinib, an FDA approved targeted therapy for advanced pancreatic cancer. See Moore M J, Goldstein D, Hamm J, et al. Erlotinib plus gemcitabine compared with gemcitabine alone in patients with advanced pancreatic cancer: a phase Ill trial of the National Cancer Institute of Canada Clinical Trials Group. J Clin Oncol 25:1960-06 2007. […] Xenograft models of these cases were randomly assigned to (i) control, (ii) erlotinib arm (one-size-fits-all second line treatment) and (iii) molecular mimicry arm (i.e., drug selection according to the present invention). For the molecular mimicry arm, the baseline gene expression profiles of these cases were connected the NCI reference panel using GS-CMAP, and one of the seven anticancer agents was assigned to the case based on comparing the GI50 among these drugs. Molecular mimicry predicted that JH033 and JH034 are sensitive to docetaxel, PANC185 is sensitive to irinotecan and PANC219 is sensitive to doxorubicin. These cases were treated with the molecular mimicry choice of drugs and tumor volumes were measured. At the end of the experiment, xenografts treated with molecular mimicry choice of drugs had higher tumor growth inhibition than their litter mates treated with erlotinib (FIGS. 12 and 13).

## Nc1ccn([C@@H]2O[C@H](CO)[C@@H](O)C2(F)F)c(=O)n1 [gemcitabine]
[1]; five xenografts connected to gemcitabine sensitive NCI-60 cell lines
  average TGI: −24%
[1]; of thirty xenografts, gemcitabine, PANC194, PANC266, PANC294, PANC140, PANC253
  responders (TGI less than −30%, RECIST criterion): five responders
[1]; xenograft PANC194, gemcitabine
  TGI: −63%
Pancreatic cancer; first-line
  patients who benefit from this therapy: ~20%
Pancreatic cancer; pancreatic cancer patients
  response rate: less than 20%
[2]; four xenograft cases (PANC185, PANC219, JH033, JH034)
  median TGI: 36.5%
[2]; xenograft JH033
  TGI: more than 20%
[2]; xenograft JH034
  TGI: more than 20%
[2]; xenograft PANC185
  TGI: more than 20%
[2]; xenograft PANC219
  TGI: more than 20%
